Source: patent US11041212B2, “ABCA1 downregulation in prostate cancer” (THE CLEVELAND CLINIC FOUNDATION, priority 2013, dated 2021)

How the values were obtained:
Format in all cases: cell-based, human
ABCA1 transcription = assay: ABCA1 mRNA expression by realtime RT-PCR in LNCaP cells; details: 10 μM T0901317 24 hours, 5 μM 5-aza-2′-deoxycytidine 7 days, or combination, vs mock treated
Experimental: PrEC (Lonza, Walkersville, Md.) was cultured in PrEGM according to the manufacturer's instructions. LNCaP and DU 145 (ATCC, Manassas, Va.) were cultured in RPMI 1640 supplemented with 10% FBS. All three cell lines were obtained directly from the cell banks, and the identities of the cell lines were verified per the cell banks' protocols. […] Louis, Mo.) for 24 hours or 5 μM 5-aza-2′-deoxycytidine (Sigma, St. Louis, Mo.) for 7 days, or a combination of the two compounds. ABCA1 promoter (−1132 to +112 relative to the transcription start site) was amplified by PCR and subcloned into the pGL4.20 (Promega, Madison, Wis.). Methylated ABCA1 promoter was in vitro DNA methylated using SssI (NEB, Ipswich, Mass.) and ligated into pGL4.20 prior to transfection. The reporter construct was co-transfected with pGL 4.74 vector into DU 145 cells using Nucleofection (Lonza, Walkersville, Md.). Reporter luciferase activity was measured and normalized to control Renilla luciferase activity for each sample. The mean±SEM from triplicate experiments for each experimental group was plotted for comparisons. […] Expression of ABCA1 and GAPDH mRNA was measured by realtime RT-PCR as previously described (Yan et al.). The relative fold change in expression was calculated using the 2^−ΔΔCT method by normalizing to GAPDH mRNA expression in each sample and compared to LNCaP mock treated cells. […]

ABCA1 promoter [1] = assay: Methylation-specific PCR (MSP) of the ABCA1 promoter in LNCaP cells; details: 5 μM for 7 days
Experimental: Bisulfite sequencing and methylation-specific PCR (MSP) of the ABCA1 promoter was performed as previously described (Yan et al., PLoS ONE. 2011; 6(6):e20628 (2011). See Table 1 for a list of the primers used.

LNCaP cells [2] = assay: Total cellular cholesterol content in LNCaP cells; details: single agent
Experimental: (§1) PrEC (Lonza, Walkersville, Md.) was cultured in PrEGM according to the manufacturer's instructions. LNCaP and DU 145 (ATCC, Manassas, Va.) were cultured in RPMI 1640 supplemented with 10% FBS. All three cell lines were obtained directly from the cell banks, and the identities of the cell lines were verified per the cell banks' protocols. Cells were treated with 10 μM T0901317 (Sigma, St. Louis, Mo.) for 24 hours or 5 μM 5-aza-2′-deoxycytidine (Sigma, St. Louis, Mo.) for 7 days, or a combination of the two compounds. ABCA1 promoter (−1132 to +112 relative to the transcription start site) was amplified by PCR and subcloned into the pGL4.20 (Promega, Madison, Wis.). Methylated ABCA1 promoter was in vitro DNA methylated using SssI (NEB, Ipswich, Mass.) and ligated into pGL4.20 prior to transfection. […] Reporter luciferase activity was measured and normalized to control Renilla luciferase activity for each sample. […] Biochemical quantification of intracellular cholesterol was performed as previously described. […] At the end of this chase period, the radioactivity in the medium and cells was determined by liquid scintillation counting, and the percent efflux was calculated as 100×(medium dpm)/(medium dpm+cell dpm). Percent efflux to acceptors was calculated as (percent efflux to acceptor)-(percent efflux to no acceptor). […]

LNCaP cells [3] = assay: Cellular [3H]-cholesterol efflux to acceptors in LNCaP cells; details: for cholesterol efflux to APOA1: acceptor 10 μg/mL APOA1, 4 hours chase; for cholesterol efflux to HDL: acceptor 100 μg/mL HDL, 4 hours chase
Experimental: PrEC (Lonza, Walkersville, Md.) was cultured in PrEGM according to the manufacturer's instructions. LNCaP and DU 145 (ATCC, Manassas, Va.) were cultured in RPMI 1640 supplemented with 10% FBS. All three cell lines were obtained directly from the cell banks, and the identities of the cell lines were verified per the cell banks' protocols. Cells were treated with 10 μM T0901317 (Sigma, St. Louis, Mo.) for 24 hours or 5 μM 5-aza-2′-deoxycytidine (Sigma, St. Louis, Mo.) for 7 days, or a combination of the two compounds. ABCA1 promoter (−1132 to +112 relative to the transcription start site) was amplified by PCR and subcloned into the pGL4.20 (Promega, Madison, Wis.). Methylated ABCA1 promoter was in vitro DNA methylated using SssI (NEB, Ipswich, Mass.) and ligated into pGL4.20 prior to transfection. The reporter construct was co-transfected with pGL 4.74 vector into DU 145 cells using Nucleofection (Lonza, Walkersville, Md.). Reporter luciferase activity was measured and normalized to control Renilla luciferase activity for each sample. The mean±SEM from triplicate experiments for each experimental group was plotted for comparisons. The different groups were compared using one way ANOVA with Bonferroni's multiple comparison test. For filipin staining, LNCaP and DU 145 cells were grown on glass coverslips, fixed in 3% paraformaldehyde, and stained with 50 μg/mL filipin (Sigma, St. Louis, Mo.). Images were acquired using QCapturePro software (Qlmaging, Surrey, Canada) at the designated magnifications and fixed aperture and exposure time for both cell lines. Biochemical quantification of intracellular cholesterol was performed as previously described. Robinet et al., J Lipid Res. 51(11):3364-9 (2010). The different groups were compared using one way ANOVA with Bonferroni correction. For analysis of cholesterol efflux, cells were labeled with 0.5 μCi/mL [^3H]-cholesterol in RPMI containing 1% FBS for 16 hours at 37° C. After labeling, cells were chased for 4 hours at 37° C. in RPMI with or without acceptors (10 μg/mL APOA1 or 100 μg/mL HDL). At the end of this chase period, the radioactivity in the medium and cells was determined by liquid scintillation counting, and the percent efflux was calculated as 100×(medium dpm)/(medium dpm+cell dpm). Percent efflux to acceptors was calculated as (percent efflux to acceptor)-(percent efflux to no acceptor). LNCaP treatment groups were compared to the mock treated sample using one way ANOVA with Dunnett's correction. Unpaired t test with Welch's correction was used to compare the T0901317-treated with the mock treated DU 145 cells.

ABCA1 promoter [4] = assay: ABCA1 promoter/luciferase reporter assay in DU 145 cells; details: 10 μM, 24 hours
Experimental: PrEC (Lonza, Walkersville, Md.) was cultured in PrEGM according to the manufacturer's instructions. LNCaP and DU 145 (ATCC, Manassas, Va.) were cultured in RPMI 1640 supplemented with 10% FBS. All three cell lines were obtained directly from the cell banks, and the identities of the cell lines were verified per the cell banks' protocols. Cells were treated with 10 μM T0901317 (Sigma, St. Louis, Mo.) for 24 hours or 5 μM 5-aza-2′-deoxycytidine (Sigma, St. Louis, Mo.) for 7 days, or a combination of the two compounds. ABCA1 promoter (−1132 to +112 relative to the transcription start site) was amplified by PCR and subcloned into the pGL4.20 (Promega, Madison, Wis.). Methylated ABCA1 promoter was in vitro DNA methylated using SssI (NEB, Ipswich, Mass.) and ligated into pGL4.20 prior to transfection. The reporter construct was co-transfected with pGL 4.74 vector into DU 145 cells using Nucleofection (Lonza, Walkersville, Md.). Reporter luciferase activity was measured and normalized to control Renilla luciferase activity for each sample. The mean±SEM from triplicate experiments for each experimental group was plotted for comparisons. The different groups were compared using one way ANOVA with Bonferroni's multiple comparison test.

DU 145 cells [5] = assay: Total cellular cholesterol content in DU 145 cells; details: 10 μM T0901317
Experimental: as §1

DU 145 cells [6] = assay: Cellular [3H]-cholesterol efflux to acceptors in DU 145 cells
Experimental: as §1

SMILES	ABCA1 transcription (mRNA expression) (ABCA1 transcription)	demethylation of ABCA1 promoter (ABCA1 promoter [1])	intracellular cholesterol (change vs untreated) (LNCaP cells [2])	cholesterol efflux to APOA1 (LNCaP cells [3])	cholesterol efflux to HDL (LNCaP cells [3])	luciferase reporter activity from methylated ABCA1 promoter (ABCA1 promoter [4]; SssI methylated promoter)	luciferase reporter expression from unmethylated ABCA1 promoter (ABCA1 promoter [4]; unmethylated promoter)	intracellular cholesterol (change vs mock) (DU 145 cells [5])	cholesterol efflux to APOA1 (DU 145 cells [6]; acceptor 10 μg/mL APOA1, 10 μM T0901317)	cholesterol efflux to HDL (DU 145 cells [6]; acceptor 100 μg/mL HDL, 10 μM T0901317)
Nc1ncn([C@H]2C[C@H](O)[C@@H](CO)O2)c(=O)n1 [5-aza-2′-deoxycytidine]	did not strongly induce ABCA1 transcription	confirmed demethylation of ABCA1 promoter	did not decrease significantly	did not result in robust increases in cholesterol efflux	same overall trend	–	–	–	–	–
O=S(=O)(c1ccccc1)N(CC(F)(F)F)c1ccc(C(O)(C(F)(F)F)C(F)(F)F)cc1 [T0901317]	only modestly induced above baseline	–	did not decrease significantly	did not result in robust increases in cholesterol efflux	same overall trend	not induced	significant induction of reporter expression	decreased intracellular cholesterol	significant increase in cholesterol efflux to APOA1	small, but statistically significant increase in cholesterol efflux to HDL
